Source: patent US20110245242A1, “Heterocyclically Substituted Anilinopyrimides” (Bayer CropScience AG, priority 2008, published 2011)

Experiments:
[1] = log P by LC-MS, method [b], acid range pH 2.7; assay type: physicochemical; settings: pH 2.7
Experimental: The log P values were measured in accordance with EEC Directive 79/831 Annex V.A8 by HPLC (High Performance Liquid Chromatography) on reversed-phase columns (C 18) using the methods below:
[b] The LC-MS determination in the acid range was carried out at pH 2.7 using the mobile phases 0.1% aqueous formic acid and acetonitrile (contains 0.1% formic acid)
linear gradient from 10% acetonitrile to 95% acetonitrile.

physchem = assay type: physicochemical; settings: pH 7.8
Experimental: The log P values were measured in accordance with EEC Directive 79/831 Annex V.A8 by HPLC (High Performance Liquid Chromatography) on reversed-phase columns (C 18) using the methods below: [c] The LC-MS determination in the neutral range was carried out at pH 7.8 using the mobile phases 0.001 molar aqueous ammonium bicarbonate solution and acetonitrile linear gradient from 10% acetonitrile to 95% acetonitrile.

| Compound | log p [1] | log p (physchem) |
| --- | --- | --- |
| COC(=O)N(c1cccc(N2CCCC2=O)c1)c1ncc(Cl)c(NC2CC2)n1 [Example 327] | 1.77[b] | 1.99[c]; |
| CC1CC1Nc1nc(Nc2cccc(N3C(=O)OC[C@H]3C(C)C)c2)ncc1Cl (stereo partly drawn) [Example 216] | 2.43[b] | 3.46[c]; |
| O=C1CCCN1c1cccc(Nc2ncc(C(F)(F)F)c(NCC(F)(F)C(F)(F)F)n2)c1 [Example 218] | 3.1[b] | 3.07[c]; |
| CC1CCN(c2cccc(Nc3ncc(C(F)(F)F)c(NC4CCC4)n3)c2)C1=O (stereo not drawn) [Example 251] | 3.16[b] | 3.67[c]; |
| CC1CC(=O)N(c2cccc(Nc3ncc(C(F)(F)F)c(NC4CCC4)n3)c2)C1=O (stereo not drawn) [Example 247] | 2.67[b] | 3.04[c]; |
| Cc1ccc(Nc2ncc(C(F)(F)F)c(NC3CC3)n2)cc1N1CCCC1=O [Example 316] | 2.16[b] | 2.62[c]; |
| O=C1CCCN1c1cccc(Nc2ncc(C(F)(F)F)c(NCC(F)F)n2)c1 [Example 311] | 2.38[b] | 2.52[c]; |
| CC1CC1Nc1nc(Nc2cccc(N3C(=O)OCC3C)c2)ncc1Cl (stereo not drawn) [Example 215] | 1.84[b] | 2.79[c]; |
| CC1CC(Nc2nc(Nc3cccc(N4C(=O)CC(C)(C)C4=O)c3)ncc2Br)C1 (stereo not drawn) [Example 257] | 2.58[b] | 3.66[c]; |
| CC1CC1Nc1nc(Nc2cccc(N3CCCC3=O)c2)ncc1Br (stereo not drawn) [Example 229] | 1.84[b] | 2.82[c]; |
| CC1CCN(c2cccc(Nc3ncc(Cl)c(NC4CC4C)n3)c2)C1=O (stereo not drawn) [Example 241] | 2.06[b] | 3.17[c]; |
| COc1cc(Nc2ncc(C(F)(F)F)c(NC3CC3)n2)cc(N2CCCC2=O)c1 [Example 326] | 2.47[b] | 2.8[c]; |
| CC1CCC(=O)N1c1cccc(Nc2ncc(C(F)(F)F)c(NC3CC3)n2)c1 (stereo not drawn) [Example 243] | 2.41[b] | 2.73[c]; |
| CC1CC(=O)N(c2cccc(Nc3ncc(Cl)c(NC4CCC4)n3)c2)C1=O (stereo not drawn) [Example 188] | 1.76[b] | 2.67[c]; |
| COc1ccc(Nc2ncc(C(F)(F)F)c(NC3CC3)n2)cc1N1CCCC1=O [Example 324] | 1.98[b] | 2.51[c]; |
| CCN(C)c1nc(Nc2cccc(N3CCCC3=O)c2)ncc1Cl [Example 207] | 1.79[b] | 2.91[c]; |
| O=C1CCCN1c1cccc(Nc2ncc(Cl)c(N3CCCCC3)n2)c1 [Example 225] | 2.57[b] | 3.53[c]; |

| Compound | log p [1] | log p (physchem) |
| --- | --- | --- |
| CC(C)Nc1nc(Nc2cccc(N3CCCC3=O)c2)ncc1C(F)(F)F [Example 297] | 2.35[b] | 3[c]; |
| COc1cc(Nc2ncc(Cl)c(NC3CC3)n2)cc(N2CCCC2=O)c1 [Example 318] | 1.64[b] | 2.46[c]; |
| CNc1nc(Nc2ccc(F)c(N3CCCC3=O)c2)ncc1Cl [Example 199] | 1.28[b] | 1.91[c]; |
| CC1CCN(c2cccc(Nc3ncc(C(F)(F)F)c(NC4CC4)n3)c2)C1=O (stereo not drawn) [Example 292] | 2.65[b] | 3.05[c]; |
| O=C1CCCN1c1cccc(Nc2ncc(C(F)(F)F)c(NCC(F)(F)F)n2)c1 [Example 306] | 2.6[b] | 2.66[c]; |
| CC1CC(=O)N(c2cccc(Nc3ncc(Br)c(NC4CC4)n3)c2)C1 (stereo not drawn) [Example 99] | 1.85[b] | 2.79[c]; |
| O=C1CCCN1c1cccc(Nc2ncc(Cl)c(N3CCOCC3)n2)c1 [Example 226] | 1.98[b] | 2.29[c]; |
| CC1(Nc2nc(Nc3cccc(N4CCCC4=O)c3)ncc2C(F)(F)F)CC1 [Example 252] | 2.44[b] | 2.95[c]; |
| CN(c1cccc(N2CCCC2=O)c1)c1ncc(Cl)c(N(C)C2CC2)n1 [Example 325] | 1.98[b] | 3.66[c]; |
| O=C1CCC(C(F)(F)F)N1c1cccc(Nc2ncc(C(F)(F)F)c(NC3CC3)n2)c1 (stereo not drawn) [Example 314] | 2.74[b] | 2.98[c]; |
| Cc1ccc(Nc2ncc(Cl)c(NC3CC3)n2)cc1N1CCCC1=O [Example 305] | 1.44[b] | 2.32[c]; |
| CC(C)C1COC(=O)N1c1cccc(Nc2ncc(C(F)(F)F)c(NC3CCC3)n2)c1 (stereo not drawn) [Example 263] | 3.47[b] | 3.85[c]; |
| C[C@H]1COC(=O)N1c1cccc(Nc2ncc(Cl)c(N3CCC3)n2)c1 [Example 230] | 1.58[b] | 2.75[c]; |
| O=C1CCCN1c1cccc(Nc2ncc(C(F)(F)F)c(NCCF)n2)c1 [Example 302] | 2.05[b] | 2.67[c]; |
| COC(=O)N(c1cccc(N2CCCC2=O)c1)c1ncc(C(F)(F)F)c(NC2CC2)n1 [Example 309] | 2.25[b] | 2.37[c]; |
| O=C1CCCN1c1cccc(Nc2ncc(Cl)c(N3CCSCC3)n2)c1 [Example 228] | 2.63[b] | 3.01[c]; |
| CC(C)Nc1nc(Nc2ccc(F)c(N3CCCC3=O)c2)ncc1Cl [Example 197] | 1.55[b] | 2.55[c]; |

Results, then the molecule that gave them:

| log p [1] | log p (physchem) | Compound |
| --- | --- | --- |
| 1.91[b] | 3.02[c]; | CC1CN(c2cccc(Nc3ncc(Cl)c(NC4CCC4)n3)c2)C(=O)O1 (stereo not drawn) [Example 312] |
| 1.83[b] | 2.9[c]; | CC1CC1Nc1nc(Nc2cccc(N3C(=O)OCC3C)c2)ncc1Br (stereo not drawn) [Example 239] |
| 2.66[b] | 3.48[c]; | CC1CCN(c2cccc(Nc3ncc(Cl)c(N(C)C4CC4)n3)c2)C1=O (stereo not drawn) [Example 186] |
| 2.09[b] | 3.09[c]; | CC1CC(Nc2nc(Nc3cccc(N4C(=O)CC(C)C4=O)c3)ncc2Cl)C1 (stereo not drawn) [Example 333] |
| 3.25[b] | 3.26[c]; | CC1CC(Nc2nc(Nc3cccc(N4CCCC4=O)c3)ncc2Cl)C1 (stereo not drawn) [Example 299] |
| 2.04[b] | 3.17[c]; | CC1CN(c2cccc(Nc3ncc(Br)c(NC4CCC4)n3)c2)C(=O)O1 (stereo not drawn) [Example 287] |
| 2.09[b] | 2.92[c]; | CC1CC1Nc1nc(Nc2cccc(N3C(=O)CC(C)(C)C3=O)c2)ncc1Cl (stereo not drawn) [Example 246] |
| 1.82[b] | 3.07[c]; | CC(C)Nc1nc(Nc2cccc(N3CCC(C)C3=O)c2)ncc1Cl (stereo not drawn) [Example 185] |
| 2.23[b] | 2.98[c]; | CC1CC(Nc2nc(Nc3cccc(N4C(=O)CC(C)C4=O)c3)ncc2Br)C1 (stereo not drawn) [Example 281] |
| 3.04[b] | 3.34[c]; | CC(C)C1COC(=O)N1c1cccc(Nc2ncc(C(F)(F)F)c(NC3CC3)n2)c1 (stereo not drawn) [Example 249] |
| 2.22[b] | 3.18[c]; | CC(C)C1COC(=O)N1c1cccc(Nc2ncc(Br)c(NC3CC3)n2)c1 (stereo not drawn) [Example 250] |
| 2.65[b] | 3.06[c]; | CC1CC(=O)N(c2cccc(Nc3ncc(C(F)(F)F)c(NC4CC4)n3)c2)C1 (stereo not drawn) [Example 240] |
| 1.77[b] | 2.79[c]; | CC1CC1Nc1nc(Nc2cccc(N3CCOC3=O)c2)ncc1Br (stereo not drawn) [Example 227] |
| 3.27[b] | 3.74[c]; | CC1CC(C)N(c2cccc(Nc3ncc(C(F)(F)F)c(NC4CCC4)n3)c2)C1=O (stereo not drawn) [Example 289] |
| 2.29[b] | 2.53[c]; | CC1CC(=O)N(c2cccc(Nc3ncc(C(F)(F)F)c(NC4CC4)n3)c2)C1=O (stereo not drawn) [Example 244] |
| 2.2[b] | 3.11[c]; | CC1CC1Nc1nc(Nc2cccc(N3C(=O)CC(C)(C)C3=O)c2)ncc1Br (stereo not drawn) [Example 295] |
| 2.3[b] | 3.24[c]; | O=C1CCC(C(F)(F)F)N1c1cccc(Nc2ncc(Br)c(NC3CCC3)n2)c1 (stereo not drawn) [Example 258] |
| 1.29[b] | 2.24[c]; | CCNc1nc(Nc2cccc(N3CCCC3=O)c2)ncc1Cl [Example 204] |
| 2.66[b] | 3.53[c]; | CC1CC1N(C)c1nc(Nc2cccc(N3CCCC3=O)c2)ncc1Cl (stereo not drawn) [Example 304] |
| 1.89[b] | 2.67[c]; | O=C1CCC(C(F)(F)F)N1c1cccc(Nc2ncc(Cl)c(NC3CC3)n2)c1 (stereo not drawn) [Example 260] |
| 1.81[b] | 2.67[c]; | CC1CC1Nc1nc(Nc2cccc(N3CCCCC3=O)c2)ncc1Br (stereo not drawn) [Example 223] |
| 2.36[b] | 3.7[c]; | CCC1CC(C)C(=O)N1c1cccc(Nc2ncc(Br)c(NC(C)C)n2)c1 (stereo not drawn) [Example 210] |
| 1.97[b] | 2.91[c]; | CC1CC1Nc1nc(Nc2ccc(N3CCOC3=O)cc2)ncc1Br (stereo not drawn) [Example 308] |
| 2.33[b] | 3.54[c]; | CCC1CC(C)C(=O)N1c1cccc(Nc2ncc(Cl)c(NCC3CC3)n2)c1 (stereo not drawn) [Example 212] |
| 2.43[b] | 3.22[c]; | CC1CC(Nc2nc(Nc3cccc(N4C(=O)CC(C)(C)C4=O)c3)ncc2Cl)C1 (stereo not drawn) [Example 259] |
| 1.7[b] | 2.48[c]; | CC1CC1Nc1nc(Nc2cccc(N3CCCCC3=O)c2)ncc1Cl (stereo not drawn) [Example 213] |
| 2.54[b] | 3.71[c]; | CC(C)C1COC(=O)N1c1cccc(Nc2ncc(Br)c(NC3CCC3)n2)c1 (stereo not drawn) [Example 248] |
| 1.65[b] | 2.56[c]; | CC1CN(c2cccc(Nc3ncc(Cl)c(NC4CC4)n3)c2)C(=O)O1 (stereo not drawn) [Example 264] |
| 1.87[b] | 2.74[c]; | CCC1CCC(=O)N1c1cccc(Nc2ncc(Cl)c(NC3CC3)n2)c1 (stereo not drawn) [Example 294] |
